{"source": "patent EP1708721B1", "about": "“MYOCARDIAL PERFUSION IMAGING USING ADENOSINE RECEPTOR AGONISTS” (Gilead Sciences, Inc., priority 2004, dated 2005)", "key": {"awake dogs": {"tested_on": "awake dogs", "assay": "Example 8: vasodilator effects in different vascular beds of chronically instrumented dogs", "assay_type": "in vivo", "settings": "250 µg/kg", "excerpt": "In this study the vasodilator effects of CVT-3146 were compared to those of ADO in different vascular beds in awake dogs. Dogs were chronically instrumented for measurements of the blood flow in coronary (CBF), mesenteric (MBF), hind limb (LBF), and renal (RBF) vascular beds, and hemodynamics."}, "humans": {"tested_on": "humans", "assay": "Example 1: open label study, CBFv by Doppler flow wire after IV bolus in catheterization patients", "assay_type": "in vivo", "settings": "intracoronary (IC) injection of 18 µg", "experimental": "The purpose of this open label study was to determine the magnitude and duration of effect of CVT-3146 (10-500 µg) on CBFv in humans.\nMETHODS: Patients undergoing a clinically indicated coronary catheterization with no more than a 70% stenosis in any coronary artery and no more than a 50% stenosis of the study vessel had CBFv determined by Doppler flow wire. Study subject were selected after measuring baseline and peak CBFv after an intracoronary (IC) injection of 18 µg of Ado. Twenty-three patients, who were identified as meeting the study criteria of having a peak to baseline CBFv ratio of ≥ 2.5 in response to Adenosine, received a rapid (≤ 10 sec) peripheral IV bolus of CVT-3146; Doppler signals were stable and interpretable over the time-course of the increase in CBFv in 17 patients."}, "[1]": {"tested_on": "subjects (26 men, 9 women)", "assay": "Example 6: stress/rest SPECT myocardial perfusion imaging, adenosine versus CVT-3146", "assay_type": "in vivo, human", "settings": "SPECT MPI, CVT-3146 400 or 500 mcg IV bolus, A infusion", "experimental": "To determine the ability of CVT-3146 to produce coronary hyperemia and accurately detect CAD, 35 subjects (26 men, 9 women; 67±10 years) underwent both A and CVT-3146 stress/rest MPI, with 10.0±9.1 days between studies. […] CVT-3146 [400 mcg (n=18), 500 mcg (n=17)] was administered as an IV bolus immediately followed by a saline flush, and then a Tc-99m radiopharmaceutical [sestamibi (n=34), tetrofosmin (n=1)]. SPECT images were uniformly processed, intermixed with control studies (normal and fixed-only defects), and interpreted by three observers in a blinded fashion using a 17-segment model. Quantitative analysis was also performed using 4D MSPECT. In addition to three separate readings, a consensus interpretation was performed and then a direct, same-screen comparison of A and CVT-3146 images undertaken to determine relative differences, using 5 regions per study."}, "awake rats": {"tested_on": "awake rats", "assay": "Example 5: sympathoexcitation, heart rate, blood pressure and plasma catecholamines after i.v. bolus", "assay_type": "in vivo", "experimental": "The present study was carried out to determine whether CVT-3146, a selective A2A adenosine receptor agonist, causes sympathoexcitation. CVT-3146 (0.31µg/kg-50 µg/kg) was given as a rapid i.v. bolus to awake rats and heart rate (HR) and blood pressure (BP) were monitored. CVT-3146 caused an increase in BP and systolic pressure (SP) at lower doses while at higher doses there was a decrease in BP and SP. […] The increase in HR was evident at the lowest dose of CVT-3146 at which there was no appreciable decrease in BP. ZM241385 (30 µg/kg , N=5), an A2A receptor antagonist, attenuated the decrease in BP (CVT-3146: 14±3%, ZM: 1±1 %) and the increase in HR (CVT: 27±3%, ZM: 18±3%) caused by CVT-3146. Pretreatment with metoprolol (MET, 1 mg/kg, n=5), a beta-blocker, attenuated the increase in HR (CVT: 27±3%, MET: 15±2%), but had no effect on hypotension caused by CVT-3146. In the presence of hexamethonium (HEX, 10 mg/kg, n=5), a ganglionic blocker, the tachycardia was prevented (CVT: 27±3%, HEX: -1±2%), but BP was further reduced (CVT: -11±2%, HEX: -49±5%)."}, "[2]": {"settings": "pretreatment with metoprolol 1 mg/kg, n=5"}, "[3]": {"settings": "in the presence of hexamethonium 10 mg/kg, n=5"}}}
{"smiles": "Nc1ncnc2c1ncn2[C@@H]1O[C@H](CO)[C@@H](O)[C@H]1O", "note": "[adenosine]", "values": [{"measurement": "duration for CBF above 2-fold of the baseline", "setting": "awake dogs", "value": "16 ± 3", "unit": "s"}, {"measurement": "peak to baseline ratio (CBFv)", "setting": "humans", "value": "3.2 ± 0.5"}, {"measurement": "summed scores following stress, quantitative methods of analysis", "setting": "[1]; 4D MSPECT", "value": "13.7±1.5"}, {"measurement": "summed scores following stress, visual", "setting": "[1]; 17-segment model", "value": "13.9±1.5"}]}
{"smiles": "COCCc1ccc(OCC(O)CNC(C)C)cc1", "note": "(stereo not shown) [metoprolol]", "values": [{"measurement": "effect on hypotension caused by CVT-3146", "setting": "awake rats; [2]", "value": "no effect"}, {"measurement": "increase in HR caused by CVT-3146", "setting": "awake rats; [2]", "value": "15±2", "unit": "%"}]}
{"smiles": "Nc1nc(NCCc2ccc(O)cc2)nc2nc(-c3ccco3)nn12", "note": "[ZM241385]", "values": [{"measurement": "decrease in BP caused by CVT-3146", "setting": "awake rats; with ZM241385 30 µg/kg, N=5", "value": "1±1", "unit": "%"}, {"measurement": "increase in HR caused by CVT-3146", "setting": "awake rats; with ZM241385 30 µg/kg, N=5", "value": "18±3", "unit": "%"}]}
{"smiles": "C[N+](C)(C)CCCCCC[N+](C)(C)C", "note": "[hexamethonium]", "values": [{"measurement": "BP (change) caused by CVT-3146", "setting": "awake rats; [3]", "value": "-49±5", "unit": "%"}, {"measurement": "tachycardia (HR change) caused by CVT-3146", "setting": "awake rats; [3]", "value": "-1±2", "unit": "%"}]}
